Legend:
[1] = molecular target: wt JAK2 (Mus musculus (Mouse), UniProt Q62120); test: JAK2 protein level by western blotting in Ba/F3-EPOR-JAK2 wt cells; assay type: cell-based
Protocol: (§1) Immunoblotting and Immunoprecipitation. Protein lysate preparation, immunoblotting, and immunoprecipitation were carried out as previously described (Lamberto, et al., 2017 Cell Chem Biol., 224(12):1490-500 e11). Briefly, 0.7×10^6 cells were treated with compounds 1 and 2 at 0, 5, 10, and 20 μM for 16 or 24 hours, cells were collected, and lysate was prepared in radioimmunoprecipitation assay (RIPA) buffer, JAK family and downstream signaling protein levels were detected by western blotting with the indicated antibodies. For immunoprecipitation, 1 mg protein for each sample was prepared and 1 μg antibody was used, immunoglobulin G (IgG) was added in same amount as nontargeting control.

[2] = tested on: JAK2-V617F; test: JAK2 protein level by western blotting in Ba/F3-EPOR-JAK2-V617F cells; assay type: cell-based
Protocol: as §1, with “[…],” for “and 20 μM for 16 or 24 hours,”
(§2) A broader range of compounds 1 and 2, including concentrations lower than 1 μM, were also tested on growth of EPOR-JAK2-V617F-expressing Ba/F3 cells and parental Ba/F3 EpoR+ cells (24 hours treatment on 4000 cells per well) (FIG. 18-FIG. 18B). Cell growth inhibition (FIG. 17A-FIG. 17B, FIG. 18A-FIG. 18B) was tested on Ba/F3-EPOR-JAK2-V617F (-IL-3/WEHI) and parental Ba/F3-EPOR cells (+IL-3/WEHI) plated at 2000 cells per well, at 1, 3 and 10 μM for 24 hours using the Promega CellTiter Glo® assay.

[3] = tested on: HEL cells; test: HEL cell growth inhibition by fresh or aged drug stocks (stability); assay type: cell-based, human; details: stocks stored two to three years at −20° Celsius; 2.5, 5, 10, 20 μM, 24 hours
Protocol: Fresh or aged stocks of compounds 1 and 2 were tested for the ability to inhibit HEL cell growth at 2.5, 5, 10, and 20 μM of each drug after 24 hours (FIG. 19A-FIG. 19B).
The CellTiter Glo® assay was performed using HEL cells seeded at 1000 cells/well of a 96-well plate. The “fresh” drug stocks were obtained frozen (stored at −20° Celsius) within days of executing the proliferation experiment for which results are shown. The “aged” drug stocks were obtained from freeze-thawed stocks serially diluted and stored at −20° Celsius in the laboratory. The “aged” stocks were stored between at least two years to three years at −20° Celsius with little to no freeze-thaw cycles prior to execution of the proliferation experiment for which results are shown. “Aged” stocks may be stored for several years (e.g., at least one year, at least two years, at least three years, at least four years or more) at −20° Celsius prior to use.

[4] = molecular target: USP30 (Homo sapiens (Human), UniProt Q70CQ3); test: USP30 biochemical IC50
Sequence of USP30 (Q70CQ3 whole entry, species assumed): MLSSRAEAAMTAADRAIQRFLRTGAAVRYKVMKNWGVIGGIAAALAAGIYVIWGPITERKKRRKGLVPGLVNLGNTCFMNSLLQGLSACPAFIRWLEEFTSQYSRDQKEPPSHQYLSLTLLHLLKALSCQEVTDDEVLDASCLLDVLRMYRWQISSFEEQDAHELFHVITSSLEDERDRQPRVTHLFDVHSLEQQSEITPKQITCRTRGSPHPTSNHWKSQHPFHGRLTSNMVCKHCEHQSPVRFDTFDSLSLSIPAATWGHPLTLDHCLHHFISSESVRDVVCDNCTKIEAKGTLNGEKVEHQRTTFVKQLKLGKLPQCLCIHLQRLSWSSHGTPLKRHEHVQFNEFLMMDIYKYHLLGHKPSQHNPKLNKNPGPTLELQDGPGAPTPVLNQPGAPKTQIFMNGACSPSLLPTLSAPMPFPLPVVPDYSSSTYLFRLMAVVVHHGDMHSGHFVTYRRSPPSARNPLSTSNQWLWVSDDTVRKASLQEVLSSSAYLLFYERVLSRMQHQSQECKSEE

[5] = tested on: Ba/F3-EPOR-JAK2-V617F-expressing cells; test: Ba/F3 cell proliferation (CellTiter Glo); assay type: cell-based, murine
Protocol: Proliferation and Drug Combination Studies. Proliferation and drug combination studies were carried out as previously described (Yang, et al., 2020, British Journal of Cancer, 122:1175-84).
As toxicities can result from small molecule targeting of both oncogenic mutated JAK2 as well as its non-mutated counterpart, a chemical genetics screen was designed and performed of a DUB-focused small molecule inhibitor library with the goal of leveraging crosstalk between phosphorylation and ubiquitination to identify DUB inhibitors able to selectively degrade mutant JAK2 while sparing wt JAK2. Of relevance, activated FLT3 can be selectively degraded over the wt enzyme by inhibition of the DUB, USP10, (Wernig, et al., 2008, Blood, 111(7):3751-9) and similar to FLT3, JAK2 is ubiquitinated in an activation-dependent manner. In brief, the library of known and novel DUB inhibitors was evaluated for ability to suppress growth of Ba/F3-EPOR-JAK2-V617F-expressing cells selectively over Ba/F3-EPOR cells growing in the presence of interleukin-3.
as §2

[6] = tested on: native DUBs (UCHL1, USP30 and JOSD1); test: Competitive activity-based protein profiling with quantitative mass spectrometry in HEK-293T lysates; assay type: binding; details: block of labeling by DUB activity-based probes
Protocol: Activity Based Protein Profiling (ABPP) assay. DUB targets were investigated using competitive ABPP with quantitative mass spectrometry. The ability to block labeling of 50 DUBs by ubiquitin-based DUB activity-based probes was quantitatively measured in HEK-293T lysates.
DUB ABPP of Compound Targets. Activity-based probes biotin-Ub-PA (UbiQ-076) and biotin-Ub-VME (UbiQ-054) were obtained from UbiQ Bio. DUB Activity based protein profiling was performed using conditions modified from those in Schauer, et al., 2020, Scientific Reports, 10:1-15, based on work by Lawson, et al., 2017 Oncotarget, 8:51296-316. HEK 293T cells were lysed (50 mM Tris pH 8.0, 150 mM NaCl, 5 mM MgC2, 0.5 mM EDTA, 0.5% NP-40, 10% glycerol, 1 mM tris(2-carboxyethyl)phosphine (TCEP), protease and phosphatase inhibitors) and the lysate was clarified by centrifugation, then diluted to 10 mg/mL. 200 μL aliquots were incubated at the indicated compound concentrations or DMSO for 5 hours at room temperature, final DMSO concentration 0.5%. Afterwards, the treated lysates were incubated with 1 μM each of Biotin-Ub-PA and Biotin-Ub-VME for 90 minutes at room temperature. […]
Specifically, quantitative mass spectrometry was utilized to measure the ability of compounds 1 and 2 to block labeling of […] native DUBs by ubiquitin-based DUB activity-based probes in HEK-293T lysates. […]

[7] = molecular target: UCHL1 (Homo sapiens (Human), UniProt P09936); test: UCHL1 biochemical inhibition (ubiquitin hydrolase activity, purified enzyme)
Sequence of UCHL1 (P09936 whole entry, species assumed): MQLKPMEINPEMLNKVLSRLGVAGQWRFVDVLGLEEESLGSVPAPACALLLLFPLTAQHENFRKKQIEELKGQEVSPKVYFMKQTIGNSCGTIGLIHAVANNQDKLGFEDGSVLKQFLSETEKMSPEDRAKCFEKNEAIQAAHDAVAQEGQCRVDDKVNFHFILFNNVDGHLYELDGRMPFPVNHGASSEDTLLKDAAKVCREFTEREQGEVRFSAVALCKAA

[8] = tested on: normal bone marrow cells; test: Normal bone marrow colony assay; assay type: cell-based, human
Protocol: Normal human bone marrow was also analyzed in a colony assay: 24-well plates seeded with 200 cells/well in MethoCult™ H4434 Classic (methylcellulose-based medium with recombinant cytokines for human cells) ([…] Technologies™ INC., Vancouver, British Columbia, Canada). The plates contained targeted JOSD1 inhibitors at the indicated concentrations. Plates were incubated at 37° C. in 5% CO2 for >1 week, and then myeloid and erythroid colonies (early progenitors with erythroid and myeloid components: colony-forming unit for granulocytes and macrophages (CFU-GM), CFU-erythroid (E), BFU-E, and CFU-granulocyte, erythroid, macrophage, megakaryocyte (GEMM) were counted on an inverted microscope.

[9] = molecular target: JAK2-V617F (Homo sapiens (Human), UniProt O60674, V617F); test: JAK2-V617F protein loss in human AML cell lines by western blotting; assay type: cell-based; details: HEL cells, co-treatment with cycloheximide
Protocol: as §1

[10] = molecular target: T1, JOSD1 (Homo sapiens (Human), UniProt Q15040); test: In vitro JOSD1 activity assay (biochemical IC50, purified enzyme)
Protocol: (§3) In vitro JOSD1 activity assay & Ubiquitin-7-amido-4-methylcoumarin (AMC) assay. In vitro JOSD1 activity assay was carried out with Ubiquitin-AMC assay. […] Recombinant JOSD1 was tested for activity in a Ubiquitin-AMC assay in the presence or absence of inhibitors. […] The reaction was incubated for 6 hours at room temperature prior to the addition of 2 μM Ubiquitin-AMC (Boston Biochem) substrate. The initial rate of the reaction was measured by collecting fluorescence data at one-minute intervals over a 30-minute period using a Clariostar® fluorescence plate reader at excitation and emission wavelengths of 345 and 445 nm, respectively. The calculated initial rate values were plotted against inhibitor concentrations to determine IC50 values.
(§4) In vitro JOSD1 activity assay. Recombinant full-length JOSD1 was tested for activity in a Ubiquitin-AMC assay in the presence or absence or inhibitors. For this assay, 10 nM JOSD1 was pre-incubated with different concentrations of inhibitors or DMSO as a control in 50 mM Tris 8.0, 0.5 mM EDTA, 10 mM ovalbumin, 5 mM DTT. The reaction was incubated for 6 h at room temperature prior to the addition of 2 mM Ubiquitin-AMC (Boston Biochem) substrate. The initial rate of the reaction was measured by collecting fluorescence data at one-minute intervals over a 30-minute period using a CLARIOstar® fluorescence plate reader at excitation and emission wavelengths of 345 and 445 nm, respectively. The calculated initial rate values were plotted against inhibitor concentrations to determine IC50 values.
(§5) JOSD1 biochemical inhibition was investigated for the analogs shown using the fluorescent substrate ubiquitin-rhodamine against purified enzyme in a continuous kinetic assay.

[11] = molecular target: T1, JOSD1; test: biochemical
Protocol: as §3, §4, §5

Compound | JAK2 levels in wt cells [1] | JAK2 degradation, independent western blotting ([2]; 18 hours, 10 μM compound 1 or 5 μM compound 2) | JAK2-V617F protein level ([2]; Ba/F3-EPOR-JAK2-V617F-expressing cells) | stability: growth inhibition by aged stocks versus fresh stocks [3] | USP30 biochemical IC50 (range in words) [4] | killing of Ba/F3-EPOR-JAK2-V617F cells compared to wt JAK2-expressing parental Ba/F3 cells [5] | sensitivity compared to Ba/F3 cells overexpressing other oncogenes [5] | cell growth inhibition ([5]; 1, 3 and 10 μM, 24 hours, independent experiments) | target engagement of UCHL1, USP30 and JOSD1 [6] | UCHL1 biochemical IC50 (range in words) [7] | normal bone marrow colony formation ([8]; 5 μM or higher) | normal bone marrow colony formation ([8]; concentrations up to 2.5 μM) | JAK2-V617F protein half-life [9] | JOSD1 IC50 (range in words) [10] | IC50 [11]
Cc1noc(C)c1-c1ccc2nc(NC(=O)[C@H]3CCN(C#N)C3)sc2c1 [Compound 1, (S)-1-cyano-N-(6-(3,5-dimethylisoxazol-4-yl)benzo[d]thiazol-2-yl)pyrrolidine-3-carboxamide] | little to no impact on JAK2 levels | degradation of JAK2 | decreases in JAK2-V617F protein | comparable cell growth inhibition | several hundred | selective killing | among the highest sensitivity | inhibit growth | dose-dependent target engagement | several hundred | significantly impaired | colonies were able to form | shorten JAK2-V617F protein half-life | several hundred | 
CCS(=O)(=O)N1CCN(c2nc3cccc(-c4c(C)noc4C)c3s2)C(=O)C1 [Compound 66] |  |  |  |  |  |  |  |  |  |  |  |  |  |  | > 100 nM
